Test results as given in US8889671B2, “Compounds and methods for treating bacterial infections” (AstraZeneca AB, priority 2013, dated 2014).
≈ marks a conversion by molar mass, not a printed value. Like-named read-outs stand apart in the source and are kept apart here.

Tests used:
Staphylococcus aureus [1] = assay: Susceptibility testing (MIC) Assay 1, broth microdilution; format: cell-based; conditions: Staphylococcus aureus
Streptococcus pneumoniae = assay: as above; format: cell-based
Streptococcus pyogenes = assay: as above; format: cell-based; conditions: Streptococcus pyogenes, Streptococcus pyrgenes, in vivo strain; read-out: Spy MIC
Escherichia coli = assay: Susceptibility testing (MIC) Assay 2, broth microdilution; format: cell-based; conditions: K12, read-out: Eco MIC
Haemophilus influenzae [2] = assay: as above; format: cell-based; conditions: ATCC51907, Haemophilus influenzae, ATCC 51907, in vivo strain, read-out: Hin MIC
Klebsiella pneumoniae [3] = assay: as above; format: cell-based; conditions: clinical isolate, mucoid, read-out: Kpn MIC
Pseudomonas aeruginosa = assay: as above; format: cell-based; conditions: PAO1, read-out: Pae MIC
Staphylococcus aureus [4] = assay: Modal MIC against S. aureus isolates of the thigh model; format: cell-based
Protocol: The S. aureus strains used included a methicillin-resistant isolate obtained from the American Type Culture Collection (ATCC33591) (MRSA). In addition, three S. aureus clinical isolates were utilized; (1) a methicillin sensitive isolate (MSSA); (2) a recent methicillin-resistant clinical isolate of the USA300 genotype (USA300) and (3) a recent methicillin-resistant clinical isolate of the USA100 genotype ([…]).
The MIC against each isolate was determined using the broth microdilution method following CLSI guidelines (Rayner et al. Clinical pharmacodynamics of linezolid in seriously ill patients treated in a compassionate use program. Clin Pharmacokinet 2003. 42:1411-23). Ten individual determinations were performed for each strain and the Modal MIC was used for all PK/PD calculations.

Citrobacter freundii = assay: In vitro antibacterial activity of Example 5 (MIC); format: cell-based
Haemophilus influenzae [5] = assay: In vitro antibacterial activity of Example 5 (MIC); format: cell-based
Klebsiella oxytoca = assay: In vitro antibacterial activity of Example 5 (MIC); format: cell-based
Klebsiella pneumoniae [6] = assay: In vitro antibacterial activity of Example 5 (MIC); format: cell-based
Moraxella catarrhalis = assay: In vitro antibacterial activity of Example 5 (MIC); format: cell-based; conditions: ATCC43617; Moraxella catarrhalis (ATCC 43617)
Proteus mirabilis = assay: In vitro antibacterial activity of Example 5 (MIC); format: cell-based
Propionibacterium acnes = assay: In vitro antibacterial activity of Example 5 against anaerobes (MIC, agar dilution); format: cell-based; conditions: Cutibacterium acnes
[7] = system: Bacteroides thetaiotaomicron; assay: as above; format: cell-based
B. anthracis = assay: microbe, parasite or virus in culture; format: cell-based, Bacillus anthracis
S. pyogenes ARC838 = assay: Emergence of resistance with serial passage; format: cell-based, Streptococcus pyogenes; conditions: after twenty passages with Example 5, S. pyogenes ARC838

Work on `C[C@@H]1CN2c3c(cc4c(N5C(=O)OC[C@@H]5C)noc4c3F)CC3(C(=O)NC(=O)NC3=O)[C@H]2[C@H](C)O1` [Example 5, (2R,4S,4aS)-11-Fluoro-2,4-dimethyl-8-[(4S)-4-methyl-2-oxo-1,3-oxazolidin-3-yl]-1,2,4,4a-tetrahydro-2′H,6H-spiro[1,4-oxazino[4,3-a][1,2]oxazolo[4,5-g]quinoline-5,5′-pyrimidine]-2′,4′,6′(1′H,3′H)-trione] yielded an MIC (Staphylococcus aureus [1]; Staphylococcus aureus in vivo strain, MSQS, read-out: Sau(d) MIC) of 0.36 µM (≈ 0.175 µg/mL), an MIC (Staphylococcus aureus [1]; in vivo strain, MRQR, read-out: Sau(e) MIC) of 0.78 µM (≈ 0.38 µg/mL) and an MIC (Staphylococcus aureus [1]; serum, read-out: Sau(f) MIC) of 0.71 µM (≈ 0.346 µg/mL). For the same molecule, the MIC (Streptococcus pneumoniae; in vivo strain (footnote b), read-out: Spn(b) MIC) was 0.39 µM (≈ 0.19 µg/mL), the MIC (Streptococcus pneumoniae; in vivo strain (footnote c), read-out: Spn(c) MIC) was 0.46 µM (≈ 0.224 µg/mL) and the MIC (Streptococcus pyogenes) was 0.36 µM (≈ 0.175 µg/mL). For the same molecule, the MIC (Escherichia coli) was 4 µM (≈ 1.95 µg/mL), the MIC (Haemophilus influenzae [2]) was 0.33 µM (≈ 0.161 µg/mL) and the MIC (Klebsiella pneumoniae [3]) was > 200 µM. The MIC (Pseudomonas aeruginosa) was > 200 µM, the MIC (Staphylococcus aureus [4]; ATCC 33591 / MRSA, S. aureus MRSA (ATCC33591)) was 0.125 µg/mL (≈ 0.256 µM) and the MIC (Staphylococcus aureus [4]; S. aureus MSSA clinical isolate) was 0.0625 µg/mL (≈ 0.128 µM). The MIC (Staphylococcus aureus [4]; S. aureus USA100 clinical isolate) was 0.125 µg/mL (≈ 0.256 µM), the MIC (Staphylococcus aureus [4]; S. aureus USA300 clinical isolate) was 0.25 µg/mL (≈ 0.513 µM) and the MIC (Citrobacter freundii) was 16 µg/mL (≈ 32.8 µM). For the same molecule, the MIC (Haemophilus influenzae [5]; ATCC49619, Haemophilus influenzae (ATCC 49619 CLSI QC Strain)) was 0.25 µg/mL (≈ 0.513 µM), the MIC90 (Haemophilus influenzae [5]; Haemophilus influenzae, n=29) was 1 µg/mL (≈ 2.05 µM) and the MIC range (Haemophilus influenzae [5]; Haemophilus influenzae, n=29) was 0.125 to 1 µg/mL. The MIC (Klebsiella oxytoca) was 32 µg/mL (≈ 65.6 µM), the MIC (Klebsiella pneumoniae [6]; ATCC700603, Klebsiella pneumoniae (ATCC 700603 CLSI QC Strain)) was > 64 µg/mL and the MIC (Klebsiella pneumoniae [6]; Klebsiella pneumoniae (In vivo strain)) was 16 µg/mL (≈ 32.8 µM). The MIC (Klebsiella pneumoniae [6]; Klebsiella pneumoniae (isolates not further specified)) was 64 µg/mL (≈ 131 µM), the MIC (Moraxella catarrhalis) was 0.125 µg/mL (≈ 0.256 µM) and the MIC (Proteus mirabilis) was 8 µg/mL (≈ 16.4 µM). The MIC (Propionibacterium acnes) was 2 µg/mL (≈ 4.1 µM), the MIC ([7]; ATCC29741, Bacteroides thetaiotaomicron (ATCC 29741, CLSI QC Strain)) was 8 µg/mL (≈ 16.4 µM) and the MIC ([7]; Bacteroides thetaiotaomicron) was 8 µg/mL (≈ 16.4 µM). For the same molecule, the MIC range (B. anthracis; B. anthracis, BSL3 testing) was 0.125 to 1 µg/mL, the MIC90 (B. anthracis; Bacillus anthracis) was 0.5 µg/mL (≈ 1.03 µM) and the “decrease in susceptibility over the starting culture” value (S. pyogenes ARC838) was 8 fold.
